Series [1] concerns Nucleic Acid. The series can be described thus: Induction of DNA cleavage in Escherichia coli pBR322 assessed as form3/form2 ratio after UV irradiation. The class given is nucleic-acid assay.
Series [2] concerns Nucleic Acid. In words: Induction of DNA cleavage in Escherichia coli pBR322 assessed as form3/form2 ratio at 15 uM at pH 6 to 9 after 10 mins of UV irradiation. The class given is nucleic-acid assay.
The test system of series [3] is Nucleic Acid. The series can be described thus: Induction of photochemical DNA cleavage in Escherichia coli pBR322 assessed as disappearance of supercoiled DNA at 15 uM in pH 6.0 phosphate buffer after 10 mins of UV irradiation. The class given is nucleic-acid assay.
Series [4] deals with Nucleic Acid. The series can be described thus: Induction of photochemical DNA cleavage in Escherichia coli pBR322 assessed as disappearance of supercoiled DNA at 15 uM in pH 7.0 phosphate buffer after 10 mins of UV irradiation. The class given is nucleic-acid assay.
Series [5] relates to Nucleic Acid. The series can be described thus: Induction of photochemical DNA cleavage in Escherichia coli pBR322 assessed as disappearance of supercoiled DNA at 15 uM in pH 8.0 phosphate buffer after 10 mins of UV irradiation. The series is classed as nucleic-acid assay.
Series [6] deals with Nucleic Acid. The series can be described thus: Induction of photochemical DNA cleavage in Escherichia coli pBR322 assessed as supercoiled DNA level at 15 uM in pH 6.0 phosphate buffer measured after 30 secs of UV irradiation. The series is classed as nucleic-acid assay.
Series [7] concerns Nucleic Acid. The series can be described thus: Induction of photochemical DNA cleavage in Escherichia coli pBR322 assessed as supercoiled DNA level at 10 uM in pH 6.0 phosphate buffer measured after UV irradiation. The series is classed as nucleic-acid assay.
For series [8], the system named is Nucleic Acid. The series can be described thus: Induction of DNA cleavage in Escherichia coli pBR322 at 15 uM in pH 6.0 phosphate buffer measured after of UV irradiation. The series is classed as nucleic-acid assay.
Series [9] deals with Nucleic Acid. In words: Induction of DNA cleavage in Escherichia coli pBR322 at 10 uM in pH 6.0 phosphate buffer measured after of UV irradiation. The class given is nucleic-acid assay.
Series [10] concerns Nucleic Acid. The series can be described thus: Induction of DNA cleavage in Escherichia coli pBR322 at 5 uM in pH 6.0 phosphate buffer measured after of UV irradiation. The class given is nucleic-acid assay.
Series [11] has as its system Nucleic Acid. The series can be described thus: Induction of DNA cleavage in Escherichia coli pBR322 at 10 uM in pH 7.0 phosphate buffer measured after of UV irradiation. The series is classed as nucleic-acid assay.
Series [12] concerns A-375. The series can be described thus: Drug uptake in human A375 cells at 30 uM incubated for 30 mins by differential interference contrast microscopy. The series is classed as ADME, cell-based. The conditions noted are these: a-375, 0.5 h.
Series [13] has as its system A-375. The series can be described thus: Drug uptake in human A375 cells at 30 uM incubated for 30 mins by fluorescence microscopy. The class given is ADME, cell-based. The conditions noted are these: a-375, 0.5 h.
For series [14], the system named is A-375. The series can be described thus: Toxicity in human A375 cells at <10 uM under dark condition incubated for 72 hrs by MTT assay. The class given is cell-based. The following applies: a-375, 72 h.
Series [15] concerns A-375. In words: Phototoxicity in human A375 cells incubated for 72 hrs exposed to UV light for 10 mins by MTT assay. The class given is functional.
Series [16] has as its system Nucleic Acid. The series can be described thus: Induction of DNA damage in Escherichia coli pBR322 at 5 uM in pH 6.0 phosphate buffer measured after of UV irradiation. The class given is nucleic-acid assay.
Series [17] relates to Nucleic Acid. The series can be described thus: Induction of DNA cleavage in Escherichia coli pBR322 at 10 uM in pH 8.0 phosphate buffer measured after of UV irradiation. The series is classed as nucleic-acid assay.
The test system of series [18] is Nucleic Acid. In words: Induction of DNA cleavage in Escherichia coli pBR322 at 5 uM in pH 7.0 phosphate buffer measured after of UV irradiation. The series is classed as nucleic-acid assay.

The results in this text go back to ChEMBL document CHEMBL2157896, “Engineering pH-gated transitions for selective and efficient double-strand DNA photocleavage in hypoxic tumors” (J Med Chem, 2011).

The source made the active and inactive calls. The calls are words filed in the database; no cut-off is given here.

On to `CCN[C@H]1CO[C@@H](O[C@H]2[C@H](O[C@H]3C#C/C=C\C#C[C@]4(O)CC(=O)C(NC(=O)OC)=C3/C4=C\CSSSC)O[C@H](C)[C@@H](NO[C@H]3C[C@H](O)[C@H](SC(=O)c4c(C)c(I)c(O[C@@H]5O[C@@H](C)[C@H](O)[C@@H](OC)[C@H]5O)c(OC)c4OC)[C@@H](C)O3)[C@@H]2O)C[C@@H]1OC`, for which the result in series [1] was Active.

For `NCCCC[C@H](NC(=O)[C@@H](N)CCCCN)C(=O)Nc1ccc(C#Cc2c(F)c(F)nc(F)c2F)cc1.O=C(O)C(F)(F)F`, the Ratio in series [2] is 1. Besides, the result in series [3], in series [4], in series [5] and in series [6] was Active. Besides, in series [7], the outcome was inactive. Moreover, the Activity in series [8] is 155%; in series [9], 136%; in series [10], 32%; in series [11], above 61%; in [14], “Non-toxic”. In addition, the Drug uptake entry in series [12] and in [13] was “Active” throughout. In series [15], the CC50 result was “Active”.

As to `NCCCC[C@H](NC(=O)[C@@H](N)CCCCN)C(=O)Nc1ccc(C#Cc2c(F)c(F)nc(F)c2F)c(C#Cc2c(F)c(F)nc(F)c2F)c1.O=C(O)C(F)(F)F`, the Activity in series [10] is 13%; in series [16], 77%; in series [14], “Non-toxic”. Also, the result in series [11] and in series [17] was Active. In series [18], the outcome was inactive. Further, the Drug uptake entry in [12] and in series [13] was “Active” each time. Moreover, the CC50 entry in series [15] is “Active”.

Consider `NCCCC[C@H](N)C(=O)NCCCC[C@H](N)C(=O)Nc1ccc(C#Cc2c(F)c(F)nc(F)c2F)c(C#Cc2c(F)c(F)nc(F)c2F)c1.O=C(O)C(F)(F)F`, for which the results for the Activity in series [10], in [16] and in series [14] were 17%, 92% and “Non-toxic”, respectively. For the same compound, the result in [11] and in series [17] was Active. For the same compound, the result in series [18] was inactive. In addition, the Drug uptake entry in [12] and in [13] was “Active” throughout. Further, in [15], the CC50 result was “Active”.
